# Assay results: patent US6228602A, “Competitive apo-peroxidase assay” (Bayer Corporation, priority 1999, dated 2001)
# T1: apo-POD (Armoracia rusticana, UniProt P00433)
# T1 construct: purchased Sigma Chemical Company, St. Louis, Mo
# T1 sequence (P00433 31-353): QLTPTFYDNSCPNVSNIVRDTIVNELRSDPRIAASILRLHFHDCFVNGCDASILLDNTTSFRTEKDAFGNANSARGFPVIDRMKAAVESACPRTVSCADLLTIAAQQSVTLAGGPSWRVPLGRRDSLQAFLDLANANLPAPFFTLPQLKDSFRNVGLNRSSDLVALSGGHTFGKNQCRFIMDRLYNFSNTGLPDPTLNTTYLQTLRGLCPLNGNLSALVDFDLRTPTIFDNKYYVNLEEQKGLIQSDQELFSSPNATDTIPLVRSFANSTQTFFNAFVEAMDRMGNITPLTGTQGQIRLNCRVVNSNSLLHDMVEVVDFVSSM
# B1: myoglobin: interfering substance, 0.81 mg/dL (protein, UniProt P02144 2-154, looked up)
# Myoglobin: GLSDGEWQLVLNVWGKVEADIPGHGQEVLIRLFKGHPETLEKFDKFKHLKSEDEMKASEDLKKHGATVLTALGGILKKKGHHEAEIKPLAQSHATKHKIPVKYLEFISECIIQVLQSKHPGDFGADAQGAMNKALELFRKDMASNYKELGFQG
# Assays:
# [1] = Metal porphyrin study: metal porphyrin in water without apo-enzyme (Example IV); assay type: biochemical; conditions: HEMASTIX no lepidine/pH 7.5
# Method: (§1) In this example, other metal porphyrins were tested for their ability to reactivate different types of apo-peroxidases. Metals such as Fe, Cu, Mg, Zn, Ni, Mn, Co and Pd were complexed to hematin and added to the peroxidase detecting agent. Metals such as Mn, Fe, Cu and Co and porphyrins other than hematin, i.e. deuteroporphyrin and coproporphyrin were also shown to provide the desired response.
# [2] = molecular target: T1, apo-POD; experiment: Metal porphyrin study: reactivation of apo-peroxidase (Example IV); assay type: biochemical, horse radish; conditions: for % R @ 90 second read time on CLINITEK-200+, mean: 12 μM apo-POD, HEMASTIX no lepidine/pH 7.5
# Method: as §1
# [3] = molecular target: T2, apo-Hb (Homo sapiens, UniProt P68871+P69905); experiment: Metal porphyrin study: reactivation of apo-hemoglobin (Example IV); assay type: biochemical; conditions: 12 μM apo-Hb, 12 μM metal porphyrin, HEMASTIX no lepidine/pH 7.5
# T2 construct: made in house
# Method: as §1
# A 0.7% solution of hemoglobin was lowered to pH 1.5 and the resulting solution was ultrafiltered through a 10 KDa cutoff membrane followed by several changes of water. Filtered material was reconstituted into water. The apo-hemoglobin passed […]. […] It produced a HEMASTIX® result of +++++ indicating a high concentration of hemoglobin.
# [4] = molecular target: T1, apo-POD; experiment: Detection limit study: peroxidase activity / apo-POD reactivation read with HEMASTIX reagent (Example I); assay type: biochemical, horse radish
# Method: In this example apo-peroxidase is compared to hematin and hematin-antigen conjugates to determine the detectable concentrations and effects of conjugation and antigen molecular weight on apo-enzyme reactivations. Solutions containing combinations of apo-POD, Fe^+3 hematin and hematin conjugate were tested for peroxidase activity. Peroxidase activity was measured in urine using HEMASTIX® reagent as set out in Table 3. This reagent is similar to that set out in Table 1 but lacking the metal porphyrin conjugate, competitive binder and apo-peroxidase while containing lepidine as an activator.
# A 10 μL portion of hematin (3.6 μM, 0.23 mg/dL in phosphate buffered saline) or a 10 μL hematin-BJP allotment (3.6 μM, 8.61 mg/dL in phosphate buffered saline) was mixed with 10 μL apo-POD (3.6 μM, 14.0 mg/dL in phosphate buffered saline) all in 980 μL of phosphate buffered saline and then diluted to the desired concentration with additional phosphate buffered saline. The solution was incubated for 1 minute at 40° C. or at room temperature. The response of HEMASTIX® reagent dipped into the test solution was measured on a CLINITEK™-200 reflectance instrument. The response of the reagent set out in Table 1 on the phosphate buffered solution alone was 65.2% reflectance at 1 minute.
# Apo-horse radish peroxidase was obtained from Sigma Chemical Company of St. Louis, Mo. The phosphate buffered solution was prepared by adding 0.69 g monobasic sodium phosphate, 0.71 g of dibasic sodium phosphate and 0.45 g of sodium chloride to 100 mL of water.
# The HEMASTIX® reagent referred to earlier with the addition of lepidine and at a lower pH when compared to the formula of Table 1 was applied to the strip in a two dip system of the following composition and used in Examples I to IV (Table 3).
# [5] = molecular target: T1, apo-POD; experiment: as above; assay type: biochemical, horse radish; conditions: 1 minute @ 30° C., hematin, antigen-hematin or apo-POD alone (Cases A, B, E)
# [6] = molecular target: T1, apo-POD; experiment: Interference study with peroxidase detecting dry reagent (Example III); assay type: biochemical, horse radish; conditions: hemoglobin/myoglobin: reagent without modification; ascorbate: system with ascorbate scavenger
# Method: In this example, a peroxidase detecting dry reagent with resistance to 0.81 mg/dL hemoglobin (or myoglobin) and 25 mg/dL ascorbate and sufficient sensitivity to detect apo-peroxidase reactivation was used. […]
# The reagent was tested by dipping it into solutions containing the interfering substance with and without Fe hematin. […]
# T2 sequence (P69905 2-142 limits assumed): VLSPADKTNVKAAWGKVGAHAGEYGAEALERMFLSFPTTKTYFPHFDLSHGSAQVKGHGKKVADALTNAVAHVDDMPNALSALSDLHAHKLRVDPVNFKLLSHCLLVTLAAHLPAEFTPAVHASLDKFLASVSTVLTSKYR
# T2 sequence (P68871 2-147 limits assumed): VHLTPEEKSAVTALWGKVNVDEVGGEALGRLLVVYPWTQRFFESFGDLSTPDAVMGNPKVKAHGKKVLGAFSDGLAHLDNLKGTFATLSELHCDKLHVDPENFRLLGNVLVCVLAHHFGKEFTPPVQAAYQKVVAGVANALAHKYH
molecule,measurement,setting,value
Co deuteroporphyrin,"% R @ 90 second read time on CLINITEK-200+, mean",[1]; 120 μM metal porphyrin,71.5 % R
same,"% R @ 90 second read time on CLINITEK-200+, mean",[2]; 120 μM metal porphyrin,74.1 % R
Fe coproporphyrin,"% R @ 90 second read time on CLINITEK-200+, mean",[1]; 12 μM metal porphyrin,69.7 % R
same,"% R @ 90 second read time on CLINITEK-200+, mean",[2]; 12 μM metal porphyrin,56.4 % R
same,"% R @ 90 second read time on CLINITEK-200+, mean",[3],52.1 % R
Mn deuteroporphyrin,"% R @ 90 second read time on CLINITEK-200+, mean",[1]; 120 μM metal porphyrin,66.4 % R
same,"% R @ 90 second read time on CLINITEK-200+, mean",[2]; 120 μM metal porphyrin,48.2 % R
same,response / activity with apo-peroxidase (in words),[2]; metal porphyrin study,responses similar to those obtained for Fe
Ni deuteroporphyrin,"% R @ 90 second read time on CLINITEK-200+, mean",[1]; 120 μM metal porphyrin,75.5 % R
same,"% R @ 90 second read time on CLINITEK-200+, mean",[2]; 120 μM metal porphyrin,76.1 % R
Pb deuteroporphyrin,"% R @ 90 second read time on CLINITEK-200+, mean",[1]; 120 μM metal porphyrin,72.1 % R
same,"% R @ 90 second read time on CLINITEK-200+, mean",[2]; 120 μM metal porphyrin,73.4 % R
apo-POD: Apo-horse radish peroxidase obtained from Sigma Chemical Company,peroxidase activity (in words),"[4]; 3.6 nM, without partner",no activity by itself
same,time to complete reactivation,[4]; 20-40° C.,1 min
same,Mean % Reflectance @ 660 nm,"[5]; 3.6 nM, antigen IgG",62.3%
same,Mean % Reflectance @ 660 nm,[5]; (3.6 nM; antigen Sulfmethazine),61.2%
same,Mean % Reflectance @ 660 nm,[5]; (3.6 mM; antigen BJP),64.1%
"hemoglobin: interfering substance, 0.81 mg/dL",interference with peroxidase detecting reagent (in words),[6],causes a false positive response
B1,interference with peroxidase detecting reagent (in words),[6],causes a false positive response
